Data: patent US20080032324A1, “Apparatus and method for cell migration assays” (The Trustees Of Tufts College, priority 2004, published 2008)
“Also recorded” adds a separate entry of the source.

Columns and labels:
Type in all cases: cell-based, mouse
NIH/3T3 fibroblasts [1] = experiment: Cell viability, ethidium homodimer-1 dead assay after the experiment; settings: ethidium homodimer dead assay after each experiment
Description: The dead assay was taken from a Live/Dead Viability/Cytotoxicity kit from Molecular Probes. DiO and EthD show virtually no overlap in excitation/emission wavelengths, being 484/501 nm and 528/617 nm, respectively.

NIH/3T3 fibroblasts [2] = experiment: Fiber bundle whole-cell migration assay (residence time, 25 μm fibers); settings: ten minutes per frame, average of 30 fibers, ten hours, control 4.3±2.9 frames
Method: (§1) After labeling, the cells were allowed to settle and adhere to a fibronectin-coated fiber bundle that had been secured to a delta T4 dish (FIG. 1A). Fibers were placed into the delta T4 dish to maintain the temperature at 37° C. during experiments. […] After cells were allowed to adhere to the bundle's distal end, it was mounted on an inverted microscope stage, and excitation light was introduced through the proximal end of the fiber bundle. The fiber bundle is not connected directly to any part of the microscope, but remains within a centimeter of the objective. The excitation light was transferred through the fiber bundle to the distal end, where it excited the Vibrant DiO dye in the cell membrane (FIG. 1B). The resulting fluorescence emission light was then carried back through the fiber bundle to a CCD camera. […]
(§2) Cell migration was detected using two types of fiber bundles differing in the sizes of the individual fibers. […]
Migration is quantified as an increase in intensity at a particular fiber, as a fluorescently dyed cell moves across that fiber. […]
In this example, a threshold was assigned for each selected fiber at 75% of the maximum peak intensity for that particular fiber. […] The number of frames that the intensity stays above this threshold is counted for each fiber, and then averaged for all 30 fibers, giving an average residence time for the experiment (FIG. 2D). […]

NIH/3T3 fibroblasts [3] = experiment: Fiber bundle subcellular imaging assay (residence time, 4.5 μm fibers); settings: 10 seconds per frame, top 30 fibers, 5-minute experiment, control 7.5±7.4 frames
Method: as §1, with “The excitation light was transferred through the fiber bundle to the distal end, where it excited the Vibrant DiO dye in the cell membrane (FIG. 1B).” left out
as §2
The data shown in FIG. 3C originate from an experiment in which three separate fibers were exposed to successively higher concentrations of nocodazole. […] Regions of the cell periphery can be difficult to distinguish from the background, because the fluorescence intensity gradually diminishes at the cell perimeter. […]
Timelapse recording was performed to determine the extent of cell migration or membrane motion across the fiber surface. […] Cell movement was recorded on delta T4 dishes (data not shown), as well as on Schott and Illumina fiber bundles. […] All movement was recorded using a fluorescein filter set. […]

Q: How did the “cell viability after nocodazole treatment” value (NIH/3T3 fibroblasts [1]) turn out when `COC(=O)Nc1nc2ccc(C(=O)c3cccs3)cc2[nH]1` [nocodazole, Nocodazole] was run?
A: all cells were alive; also recorded: Cells were determined to be alive

Q: And the average residence time (NIH/3T3 fibroblasts [2]; 200 nM nocodazole)?
A: 18.8±10.3 frames

Q: What about the average residence time (NIH/3T3 fibroblasts [2]; 300 nM nocodazole) of the same compound?
A: 24.6±18.6 frames

Q: And the average residence time (NIH/3T3 fibroblasts [3]; 200 nM nocodazole)?
A: 13.2±8.0 frames

Q: What about the average residence time (NIH/3T3 fibroblasts [3]; 300 nM nocodazole) of the same compound?
A: 19.0±9.4 frames
